Results as given in patent US20230085307A1, “PYRIDAZINONE COMPOUND AND HERBICIDE” (NISSAN CHEMICAL CORPORATION, priority 2019, published 2023).

Assays:
green foxtail = test: Test Example 4: herbicidal effect by soil treatment (Table 19, symbol G); format: in vivo, green foxtail (Setaria viridis); settings: for herbicidal effect on G: green foxtail: amount of applied herbicide 320 g/ha
Outline: (§1)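 Step 1: sow seeds in sterilized diluvial soil, cover ~1.5 cm. Step 2: spray diluted emulsion onto soil surface at predetermined rate. Step 3: greenhouse, 25–30° C, three weeks. Step 4: grade effect on each plant by earlier criteria.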

velvetleaf [1] = test: Test Example 5: herbicidal effect by foliage application, plastic box (Table 20, symbol M); format: in vivo, velvetleaf (Abutilon theophrasti); settings: foliage application; for M: velvetleaf, herbicidal effect (criteria 0-5): AAH 320 g/ha, evaluated three weeks after application
Outline: (§2)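 Foliar spray test: emulsion formulation diluted in water to a set application rate, sprayed onto 14-day-old plants raised in diluvial soil at 25° C to 30° C under glass. Both herbicidal effect and crop effect rated visually three weeks later.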

wild oat = test: Test Example 4: herbicidal effect by soil treatment (Table 19, symbol I); format: in vivo, wild oat (Avena fatua); settings: for herbicidal effect on I: wild oat: amount of applied herbicide 320 g/ha
Outline: as §1

southern crabgrass [2] = test: Test Example 5: herbicidal effect by foliage application, plastic box (Table 20, symbol F); format: in vivo, southern crabgrass (Digitaria ciliaris); settings: foliage application; for F: southern crabgrass, herbicidal effect (criteria 0-5): AAH 320 g/ha, evaluated three weeks after application
Outline: as §2

persian speedwell [3] = test: Test Example 5: herbicidal effect by foliage application, plastic box (Table 20, symbol R); format: in vivo, Persian speedwell (Veronica persica); settings: foliage application; for R: persian speedwell, herbicidal effect (criteria 0-5): AAH 320 g/ha, evaluated three weeks after application
Outline: as §2

barnyard grass = test: Test Example 4: herbicidal effect by soil treatment (Table 19, symbol H); format: in vivo, barnyard grass (Echinochloa crus-galli); settings: for herbicidal effect on H: barnyard grass: amount of applied herbicide 320 g/ha
Outline: as §1

lambsquarters [4] = test: Test Example 4: herbicidal effect by soil treatment (Table 19, symbol O); format: in vivo, lambsquarters (Chenopodium album); settings: for herbicidal effect on O: lambsquarters: amount of applied herbicide 320 g/ha
Outline: as §1

blackgrass = test: Test Example 4: herbicidal effect by soil treatment (Table 19, symbol J); format: in vivo, blackgrass (Alopecurus myosuroides); settings: AAH 320 g/ha
Outline: as §1

lambsquarters [5] = test: Test Example 5: herbicidal effect by foliage application, plastic box (Table 20, symbol O); format: in vivo, lambsquarters (Chenopodium album); settings: foliage application; for O: lambsquarters, herbicidal effect (criteria 0-5): AAH 320 g/ha, evaluated three weeks after application
Outline: as §2

windgrass = test: Test Example 5: herbicidal effect by foliage application, plastic box (Table 20, symbol L); format: in vivo, windgrass (Apera spica-venti); settings: foliage application; for L: windgrass, herbicidal effect (criteria 0-5): AAH 320 g/ha, evaluated three weeks after application
Outline: as §2

oval-leafed pondweed = test: Test Example 1: herbicidal activity, application before weed generation under submerged conditions (Table 16, symbol C); format: in vivo, oval-leafed pondweed (Monochoria vaginalis); settings: 320 g/ha applied herbicide
Outline: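 Emulsion formulation, water-diluted to set dose, was put onto the flooded surface (4 cm depth, alluvial soil) the same day weeds were sown and 2.5-leaf rice transplanted. After 3 weeks at 25-30 °C under glass, each species was rated 0 (≤5% kill) to 5 (≥90% kill).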

southern crabgrass [6] = test: Test Example 4: herbicidal effect by soil treatment (Table 19, symbol F); format: in vivo, southern crabgrass (Digitaria ciliaris); settings: for herbicidal effect on F: southern crabgrass: amount of applied herbicide 320 g/ha
Outline: as §1

Japanese bulrush = test: Test Example 2: herbicidal activity, application during weed generation under submerged conditions (Table 17, symbol B); format: in vivo, Japanese bulrush (Schoenoplectus juncoides); settings: AAH 320 g/ha; application during weed generation, submerged conditions
Outline: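 3-wk visual-criteria score after one water-surface dose. Emulsion formulation, water-diluted to set rate; applied at 1–2 leaf stage; alluvial soil, 4 cm standing water; seeds co-sown; greenhouse 25–30° C.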

persian speedwell [7] = test: Test Example 4: herbicidal effect by soil treatment (Table 19, symbol R); format: in vivo, Persian speedwell (Veronica persica); settings: for herbicidal effect on R: persian speedwell: amount of applied herbicide 320 g/ha
Outline: as §1

velvetleaf [8] = test: Test Example 4: herbicidal effect by soil treatment (Table 19, symbol M); format: in vivo, velvetleaf (Abutilon theophrasti); settings: for herbicidal effect on M: velvetleaf: amount of applied herbicide 320 g/ha
Outline: as §1

chickweed [9] = test: Test Example 4: herbicidal effect by soil treatment (Table 19, symbol P); format: in vivo, common chickweed (Stellaria media); settings: for herbicidal effect on P: chickweed: amount of applied herbicide 320 g/ha
Outline: as §1

chickweed [10] = test: Test Example 5: herbicidal effect by foliage application, plastic box (Table 20, symbol P); format: in vivo, common chickweed (Stellaria media); settings: foliage application, AAH 320 g/ha, evaluated three weeks after application
Outline: as §2

[11] = 320 g/ha, 3 weeks after application

SMILES | Herbicidal effect on C: oval-leafed pondweed (grade 0-5) (oval-leafed pondweed) | herbicidal effect rating, B: Japanese bulrush (Japanese bulrush) | herbicidal effect on G: green foxtail (green foxtail) | M: velvetleaf, herbicidal effect (criteria 0-5) (velvetleaf [1]) | herbicidal effect on I: wild oat (wild oat) | F: southern crabgrass, herbicidal effect (criteria 0-5) (southern crabgrass [2]) | R: persian speedwell, herbicidal effect (criteria 0-5) (persian speedwell [3]) | herbicidal effect on H: barnyard grass (barnyard grass) | herbicidal effect on O: lambsquarters (lambsquarters [4]) | O: lambsquarters, herbicidal effect (criteria 0-5) (lambsquarters [5]) | L: windgrass, herbicidal effect (criteria 0-5) (windgrass) | herbicidal effect on F: southern crabgrass (southern crabgrass [6]) | herbicidal effect on R: persian speedwell (persian speedwell [7]) | herbicidal effect on M: velvetleaf (velvetleaf [8]) | herbicidal effect on P: chickweed (chickweed [9]) | P: chickweed, herbicidal effect (criteria 0-5) (chickweed [10]) | other results
Cc1nn(C)c(=O)c(-c2c(-c3ccc(OC(F)F)cc3)sc3ccccc23)c1O [1-201] | 1 (Herbicidal rate of 5% or more and less than 20%) | 3 (Herbicidal rate of 40% or more and less than 70%) | – | – | – | – | – | – | – | – | – | – | – | – | – | – | G: green foxtail, herbicidal effect rating (green foxtail; AAH 320 g/ha): 5 (Herbicidal rate of 90% or more (almost completely withered)); effect on velvetleaf (M) (velvetleaf [1]; [11]): 5 (Herbicidal rate of 90% or more (almost completely withered)); I: wild oat, herbicidal effect rating (wild oat; AAH 320 g/ha): 0 (Herbicidal rate of 5% or less (almost no effect)); effect on southern crabgrass (F) (southern crabgrass [2]; [11]): 0 (Herbicidal rate of 5% or less (almost no effect)); effect on persian speedwell (R) (persian speedwell [3]; [11]): 5 (Herbicidal rate of 90% or more (almost completely withered)); H: barnyard grass, herbicidal effect rating (barnyard grass; AAH 320 g/ha): 5 (Herbicidal rate of 90% or more (almost completely withered)); O: lambsquarters, herbicidal effect rating (lambsquarters [4]; AAH 320 g/ha): 5 (Herbicidal rate of 90% or more (almost completely withered)); J: blackgrass, herbicidal effect rating (blackgrass): 0 (Herbicidal rate of 5% or less (almost no effect)); effect on lambsquarters (O) (lambsquarters [5]; [11]): 5 (Herbicidal rate of 90% or more (almost completely withered)); effect on windgrass (L) (windgrass; [11]): 4 (Herbicidal rate of 70% or more and less than 90%); F: southern crabgrass, herbicidal effect rating (southern crabgrass [6]; AAH 320 g/ha): 2 (Herbicidal rate of 20% or more and less than 40%); R: persian speedwell, herbicidal effect rating (persian speedwell [7]; AAH 320 g/ha): 5 (Herbicidal rate of 90% or more (almost completely withered)); M: velvetleaf, herbicidal effect rating (velvetleaf [8]; AAH 320 g/ha): 3 (Herbicidal rate of 40% or more and less than 70%); P: chickweed, herbicidal effect rating (chickweed [9]; AAH 320 g/ha): 4 (Herbicidal rate of 70% or more and less than 90%)
C=C(C)C(=O)Oc1c(C)nn(C)c(=O)c1-c1c(-c2ccc(OC(F)F)cc2)sc2ccc(F)cc12 [2-281] | 4 (Herbicidal rate of 70% or more and less than 90%) | 4 (Herbicidal rate of 70% or more and less than 90%) | 4 (Herbicidal rate of 70% or more and less than 90%) | 5 (Herbicidal rate of 90% or more (almost completely withered)) | 0 (Herbicidal rate of 5% or less (almost no effect)) | 4 (Herbicidal rate of 70% or more and less than 90%) | 5 (Herbicidal rate of 90% or more (almost completely withered)) | 4 (Herbicidal rate of 70% or more and less than 90%) | 5 (Herbicidal rate of 90% or more (almost completely withered)) | 5 (Herbicidal rate of 90% or more (almost completely withered)) | 5 (Herbicidal rate of 90% or more (almost completely withered)) | 3 (Herbicidal rate of 40% or more and less than 70%) | 5 (Herbicidal rate of 90% or more (almost completely withered)) | 4 (Herbicidal rate of 70% or more and less than 90%) | 4 (Herbicidal rate of 70% or more and less than 90%) | 5 (Herbicidal rate of 90% or more (almost completely withered)) | –
C=CCOC(=O)Oc1c(C)nn(C)c(=O)c1-c1c(-c2ccc(OC(F)F)cc2)sc2ccc(F)cc12 [2-294] | 4 (Herbicidal rate of 70% or more and less than 90%) | 3 (Herbicidal rate of 40% or more and less than 70%) | 5 (Herbicidal rate of 90% or more (almost completely withered)) | 5 (Herbicidal rate of 90% or more (almost completely withered)) | 1 (Herbicidal rate of 5% or more and less than 20%) | 5 (Herbicidal rate of 90% or more (almost completely withered)) | 5 (Herbicidal rate of 90% or more (almost completely withered)) | 5 (Herbicidal rate of 90% or more (almost completely withered)) | 5 (Herbicidal rate of 90% or more (almost completely withered)) | 5 (Herbicidal rate of 90% or more (almost completely withered)) | 3 (Herbicidal rate of 40% or more and less than 70%) | 5 (Herbicidal rate of 90% or more (almost completely withered)) | 5 (Herbicidal rate of 90% or more (almost completely withered)) | 5 (Herbicidal rate of 90% or more (almost completely withered)) | 5 (Herbicidal rate of 90% or more (almost completely withered)) | 5 (Herbicidal rate of 90% or more (almost completely withered)) | –
COCCSCc1ccc(-c2sc3ccc(F)cc3c2-c2c(O)c(C)nn(C)c2=O)cc1 [2-327] | 3 (Herbicidal rate of 40% or more and less than 70%) | 2 (Herbicidal rate of 20% or more and less than 40%) | 4 (Herbicidal rate of 70% or more and less than 90%) | 5 (Herbicidal rate of 90% or more (almost completely withered)) | 0 (Herbicidal rate of 5% or less (almost no effect)) | 4 (Herbicidal rate of 70% or more and less than 90%) | 5 (Herbicidal rate of 90% or more (almost completely withered)) | 3 (Herbicidal rate of 40% or more and less than 70%) | 4 (Herbicidal rate of 70% or more and less than 90%) | 5 (Herbicidal rate of 90% or more (almost completely withered)) | 5 (Herbicidal rate of 90% or more (almost completely withered)) | 2 (Herbicidal rate of 20% or more and less than 40%) | 5 (Herbicidal rate of 90% or more (almost completely withered)) | 1 (Herbicidal rate of 5% or more and less than 20%) | 1 (Herbicidal rate of 5% or more and less than 20%) | 5 (Herbicidal rate of 90% or more (almost completely withered)) | –
